From patent US20100304998A1, “Chemical Proteomic Assay for Optimizing Drug Binding to Target Proteins” (MARQUETTE UNIVERSITY, priority 2009, published 2010)

How the values were obtained:
[1] = target: KCNQ1 and minK (KCNE1) potassium channel (Homo sapiens, UniProt P51787); conditions: cardiac delayed rectifier potassium channel of heart muscle cells; read-out: KD for block of the KCNQ1/minK (KCNE1) channel; cited from earlier work
ERG potassium channels = conditions: ERG channels expressed by neurons; cited from earlier work
KCNQ potassium channel = conditions: cited from earlier work
[2] = target: T1, malate dehydrogenase (MDH) (Sus scrofa, UniProt P00346); assay: 1H NMR STD (saturation transfer difference) binding assay, MDH; set-up: species or system porcine; conditions: CRAA 3 mM
T1 construct: malate dehydrogenase (porcine heart) were from Sigma Aldrich; purchased Sigma Aldrich; host or cells: porcine heart
T1 sequence (P00346 25-338): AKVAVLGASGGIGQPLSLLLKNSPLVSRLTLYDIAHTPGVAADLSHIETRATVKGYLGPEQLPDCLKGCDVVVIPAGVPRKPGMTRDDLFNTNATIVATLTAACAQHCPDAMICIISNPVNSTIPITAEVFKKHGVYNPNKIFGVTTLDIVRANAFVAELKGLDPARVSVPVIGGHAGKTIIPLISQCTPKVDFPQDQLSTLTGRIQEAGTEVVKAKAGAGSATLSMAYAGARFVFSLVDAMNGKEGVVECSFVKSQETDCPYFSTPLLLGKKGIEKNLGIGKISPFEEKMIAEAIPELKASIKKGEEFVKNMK
Description: ^1H NMR STD (saturation transfer difference) spectra for CRAA binding to either malate dehydrogenase (MDH) (FIG. 13A) or glutamate dehydrogenase (FIG. 13B) establishes that the CRAA scaffold binds proteins that were identified using the proteomic assay, thereby validing the method for identifying non-target proteins. Glutamate dehydrogenase (bovine liver, GDH) and malate dehydrogenase (porcine heart) were from Sigma Aldrich. Both experiments were performed on a 600 MHz Varian NMR system at 25° C. using the cyclonecyclnoe pulse sequence (a steady state NOE experiment) with 256 scans. On and off resonance irradiations were at 0.5 and −11 ppm respectively, performed for 4 seconds each. […] (See FIG. 13). In both cases, CRAA was present at 3 mM and the binding study was done in a 25 mM phosphate buffer at pH 7.6 with 250 ug GDH or 166 ug MDH in a total volume of 0.6 mLs. The use of STD assays in functional proteomic binding studies has been described (Yao and Sem, FEBS Lett. (2005) 579, 661-666, the content of which is incorporated herein by reference in its entirety). To verify that binding had occurred in the cofactor binding site, competition studies were also performed (not shown). […] To test this hypothesis, the competition was reversed where 3 mM NADP+ STD signal was monitored before and after adding CRAA (1 mM). […]

human liver proteome = assay: CRAA affinity column target fishing with nanospray-LC/MS/MS, human liver proteome; type: binding; conditions: elution with free CRAA
[3] = target: T2, glutamate dehydrogenase (GDH) (Bos taurus, UniProt P00366); assay: 1H NMR STD (saturation transfer difference) binding assay, GDH; set-up: species or system bovine
T2 construct: Glutamate dehydrogenase (bovine liver, GDH); purchased Sigma Aldrich; host or cells: bovine liver
Description: ^1H NMR STD (saturation transfer difference) spectra for CRAA binding to either malate dehydrogenase (MDH) (FIG. 13A) or glutamate dehydrogenase (FIG. 13B) establishes that the CRAA scaffold binds proteins that were identified using the proteomic assay, thereby validing the method for identifying non-target proteins. Glutamate dehydrogenase (bovine liver, GDH) and malate dehydrogenase (porcine heart) were from Sigma Aldrich. Both experiments were performed on a 600 MHz Varian NMR system at 25° C. using the cyclonecyclnoe pulse sequence (a steady state NOE experiment) with 256 scans. On and off resonance irradiations were at 0.5 and −11 ppm respectively, performed for 4 seconds each. […] (See FIG. 13). In both cases, CRAA was present at 3 mM and the binding study was done in a 25 mM phosphate buffer at pH 7.6 with 250 ug GDH or 166 ug MDH in a total volume of 0.6 mLs. The use of STD assays in functional proteomic binding studies has been described (Yao and Sem, FEBS Lett. (2005) 579, 661-666, the content of which is incorporated herein by reference in its entirety). To verify that binding had occurred in the cofactor binding site, competition studies were also performed (not shown). Addition of 1 mM NADH to the MDH sample caused a decrease in STD signal for CRAA (3 mM) of 35%. The analogous competition with GDH (using NADP+ as competitor) produced no change in STD signal for CRAA—which might be due to higher affinity for […]. To test this hypothesis, the competition was reversed where 3 mM NADP+ STD signal was monitored before and after adding CRAA (1 mM). A decrease in the NADP+ STD signal of 50% was now observed, due to CRAA addition.

[4] = system: E. coli cells overexpressing DHPR; assay: NHS-CRAA in-cell uptake and labeling study
Description: E. coli containing the pET11a DHPR expression construct was inoculated into 30 mL LB culture medium, growing overnight at 37° C., 225 rpm. The next day, 10 mL of this culture was added to two flasks (flasks A and B, each containing 800 mL LB medium with 50 μg/mL carbenicillin). The OD600 was monitored until it reached ˜1.0. To flask A was added 0.8 mL of a 0.4 M IPTG stock to start induction^58. Flask B was used as a control without induction. 5 hours later, cells were collected (centrifuged 10 minutes at 4,000 rpm) and washed once with 100 mM PBS buffer, pH 7.4. The Cells were then suspended in 100 mL of pH 7.4 PBS buffer (8 g NaCl, 0.2 g KCl, 1.44 g Na2HPO4, 0.24 g KH2PO4 in 1.0 L) and incubated for 5 minutes. Then, 1 mL NHS-CRAA ester (2) was added to each flask and incubated at room temperature for about 30 minutes (FIG. 3a). […] The gel was fluorescently imaged on a Kodak Image Station, to selectively detect 1 which has λmax for absorbance and emission at 465 nm and 535 nm^37. Cells were fluorescently imaged in PBS buffer after the wash (before lysis) using 495 nm/520 nm excitation/emission filters on the fluorescence microscope. Complementary fluorescence and bright field images may be shifted slightly relative to each other, because of bacterial motion between image captures. […]

[5] = target: T3, DHPR (dihydrodipicolinate reductase) (Escherichia coli, UniProt P04036); assay: Covalent labeling of purified DHPR with NHS-CRAA, with NADH or PDC competitors (SDS-PAGE); type: binding, E. coli
T3 construct: made in house; host or cells: E. coli (pET11a DHPR expression construct)
Description: FIG. 8. SDS-PAGE gel of DHPR that has been labeled with NHS-CRAA active ester, but in the presence of increasing concentrations of either NADH or PDC (2,6-pyridine dicarboxylic acid) competitors, Lane 1, protein standard; Lanes 2-6, increasing NADH ([…]); Lanes 7-10, increasing PDC (1.1, 2.3, 4.5, 9.1 mM).
2 (NHS-CRAA) uptake into E. coli cells and labeling of DHPR. To assess whether 1 (CRAA) can make it across bacterial cell walls, and therefore whether 1 is a viable scaffold for anti-infective drug design efforts, experiments were performed to determine if its N-hydroxysuccinimide ester, 2 (NHS-CRAA; FIG. 2), could enter E. coli and label intracellular DHPR (dihydrodipicolinate reductase). DHPR is an anti-infective drug target, and is known to bind the CRAA scaffold (1)^21. The NHS-CRAA active ester (2)^35 was synthesized as in FIG. 2. The NHS (N-hydroxysuccinimide) group reacts with amines, and since it is attached to the linker position of 1 (where the acetic acid chain is attached), it should reside at the interface of the NADH and substrate binding sites^21 (FIG. 1), near lysine 163^36 (see FIG. 7). Indeed, DHPR is labeled with the NHS-CRAA (2) active ester, based on imaging of an SDS-PAGE gel of labeled protein (FIG. 8). Increasing NADH concentration appears to decrease band intensity while PDC has little effect up to 9 mM. […] Next, to explore whether cell wall penetration occurs, uptake of 2 was measured into E. coli that was expressing E. coli DHPR. Since we have recently shown that the CRAA scaffold (1) is bifunctional, in that it is itself weakly fluorescent^33, protein labeling could be monitored by fluorescence imaging of SDS-PAGE gels of crude cell extracts. […] That there is more labeling in cells expressing DHPR is evident based on the more intense color for cells expressing DHPR (FIG. 3c) and on fluorescence images of the cells (FIG. 3d).

[6] = system: potassium currents IA, IK, IAHP, IQ, IL; conditions: IQ and IL currents; cited from earlier work

T3 sequence (P04036 whole entry): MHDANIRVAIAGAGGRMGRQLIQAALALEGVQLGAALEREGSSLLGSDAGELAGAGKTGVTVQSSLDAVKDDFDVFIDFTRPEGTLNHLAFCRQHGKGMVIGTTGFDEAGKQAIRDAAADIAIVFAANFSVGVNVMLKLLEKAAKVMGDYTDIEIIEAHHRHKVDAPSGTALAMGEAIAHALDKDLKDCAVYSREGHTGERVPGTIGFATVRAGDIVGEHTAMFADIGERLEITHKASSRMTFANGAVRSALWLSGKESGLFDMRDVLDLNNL
T2 sequence (P00366 58-558): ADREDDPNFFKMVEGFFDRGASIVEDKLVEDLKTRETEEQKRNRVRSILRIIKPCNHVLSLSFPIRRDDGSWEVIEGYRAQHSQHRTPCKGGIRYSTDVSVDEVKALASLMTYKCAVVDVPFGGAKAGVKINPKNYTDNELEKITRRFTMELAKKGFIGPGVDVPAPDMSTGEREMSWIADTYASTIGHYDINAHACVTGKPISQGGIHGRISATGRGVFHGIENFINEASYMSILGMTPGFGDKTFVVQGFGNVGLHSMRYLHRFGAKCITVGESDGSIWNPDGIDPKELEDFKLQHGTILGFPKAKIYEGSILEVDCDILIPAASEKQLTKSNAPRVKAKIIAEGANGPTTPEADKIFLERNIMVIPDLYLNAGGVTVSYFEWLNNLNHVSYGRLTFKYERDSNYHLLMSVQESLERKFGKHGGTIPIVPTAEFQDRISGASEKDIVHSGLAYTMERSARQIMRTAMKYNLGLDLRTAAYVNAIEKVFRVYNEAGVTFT
Chain of KCNQ1 and minK (KCNE1) potassium channel (P51787 whole entry): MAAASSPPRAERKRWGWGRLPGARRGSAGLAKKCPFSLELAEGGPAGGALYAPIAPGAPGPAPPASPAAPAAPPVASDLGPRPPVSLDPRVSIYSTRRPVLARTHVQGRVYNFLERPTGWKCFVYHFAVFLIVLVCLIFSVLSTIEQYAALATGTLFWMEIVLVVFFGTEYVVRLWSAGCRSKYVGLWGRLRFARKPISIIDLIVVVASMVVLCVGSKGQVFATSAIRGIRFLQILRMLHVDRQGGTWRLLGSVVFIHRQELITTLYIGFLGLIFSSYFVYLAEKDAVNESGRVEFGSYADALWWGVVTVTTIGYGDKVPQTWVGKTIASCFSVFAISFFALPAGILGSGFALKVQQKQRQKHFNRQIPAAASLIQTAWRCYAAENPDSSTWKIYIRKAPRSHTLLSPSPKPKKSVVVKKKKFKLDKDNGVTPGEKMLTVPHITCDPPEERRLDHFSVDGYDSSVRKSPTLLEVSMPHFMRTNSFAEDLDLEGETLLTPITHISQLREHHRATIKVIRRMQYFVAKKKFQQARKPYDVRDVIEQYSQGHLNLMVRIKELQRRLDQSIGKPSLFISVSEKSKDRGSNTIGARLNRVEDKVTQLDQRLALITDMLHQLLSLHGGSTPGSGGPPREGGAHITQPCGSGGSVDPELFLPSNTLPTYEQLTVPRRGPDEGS

O=C1c2ccccc2C(Cc2ccncc2)(Cc2ccncc2)c2ccccc21 [XE991]
Kd [1]: 11.1 ± 1.8 µM | effect on ERG potassium channels (ERG potassium channels): binds to and blocks the activity

O=C1c2ccccc2C(Cc2ccnc(F)c2)(Cc2ccnc(F)c2)c2ccccc21 [DMP543, 10, 10-Bis[(2-fluoro-4-pyridinyl)methyl]-9(10H)-anthracenone]
effect on the KCNQ potassium channel (KCNQ potassium channel): activate

O=C(O)CN1C(=O)C(=Cc2ccc(O)c(O)c2)SC1=S [CRAA, 5-[(3,4-dihydroxyphenyl)methylene]-4-oxo-2-thioxo-3-thiazolidineacetic acid]
binding to malate dehydrogenase by STD difference spectrum ([2]; 166 ug MDH, 25 mM phosphate pH 7.6, 25° C.): binds to protein | decrease in STD signal for CRAA on addition of NADH ([2]; 1 mM NADH competitor, MDH): 35% | share of captured proteins that are NAD(P)(H)-binding proteins (human liver proteome): > 50% | binding to glutamate dehydrogenase by STD difference spectrum ([3]; CRAA 3 mM, 250 ug GDH, 25 mM phosphate pH 7.6, 25° C.): binds to protein | decrease in the NADP+ STD signal due to CRAA addition ([3]; GDH, 3 mM NADP+, CRAA 1 mM): 50% | change in STD signal for CRAA with NADP+ as competitor ([3]; GDH, NADP+ competitor): no change

O=C(CN1C(=O)C(=Cc2ccc(O)c(O)c2)SC1=S)ON1C(=O)CCC1=O [NHS-CRAA, 5-[(3,4-dihydroxyphenyl)methylene]-4-oxo-2-thioxo-3-thiazolidineacetic N-hydroxysuccinimide ester]
crossing of the bacterial cell wall ([4]; intact E. coli cells overexpressing DHPR): can cross the cell wall | labeling of DHPR within intact E. coli cells ([4]; intact cells overexpressing DHPR, about 30 minutes, room temperature, fluorescence imaging of SDS-PAGE gel): significant labeling | effect of PDC on labeling of DHPR ([5]; PDC up to 9 mM): little effect | covalent labeling of purified DHPR ([5]; imaging of SDS-PAGE gel): labeled | effect of NADH on labeling of DHPR ([5]; increasing NADH concentration): partially blocked

O=C1N(c2ccccc2)c2ccccc2C1(Cc1ccncc1)Cc1ccncc1 [linopirdine]
concentration at which several other potassium currents are blocked [6]: above 10 μM
